Test results as given in patent US5214040A, “Nonsaditive antihistaminics derived from benzimidazoles” (Laboratorios del Dr. Esteve, S.A., priority 1991, dated 1993).

Key:
[1] = system: 48/80-induced death in rats; assay: Protection against mortality caused by compound 48/80 in rats (antihistaminic activity in vivo); conditions: Rattus norvegicus, ip, 60 min before 48/80 (0.5 mg/kg, i.v.), survival 4 hours after, read-out: ED-50 (protection from 48/80-induced death)
Experimental: The antihistaminic activity was studied by determining the protection against the mortality caused by the product 48/80 in rats. This trial was performed according to the technique described by C.
The activity of the products is studied at several doses in order to determine the dose which is capable of protecting 50% of the animals (ED-50).
Finally, the antihistaminic activity of the product of Example 1 is indicated.

rats = assay: Sedative effect: Irwin test (behaviour of rats); format: in vivo; conditions: i.p.; for Atax. (ataxia) / pas. (passivity, sedation, prostration): score 0 to 3, 1, 2 and 3 hours after treatment
Experimental: Pas.: Passivity, sedation, prostration. Quantitative evaluation between 0 and 3. They are performed 1, 2 and 3 hours after the treatment.
Atax.: Ataxia, the modifications of coordination in movement are evaluated. The are evaluated between 0 and 3. They are performed 1, 2 and 3 hours after the treatment.

[2] = Sedative effect: potentiation of pentobarbital-induced duration of sleep; conditions: for potentiation of pentobarbital-induced duration of sleep (in words): orally; for Potentiation of duration of sleep: p.o., vs control group with pentobarbital 35 mg/kg, s.c.
Experimental: The studied products were administered orally. […] The duration of sleep was compared with a control group of animals treated only with sodium pentobarbital.

Structure (SMILES)	ED50 [1] [mg/kg]	Atax. (ataxia) (rats; dose 40 mg/kg)	pas. (passivity, sedation, prostration) (rats; dose 40 mg/kg)	potentiation of pentobarbital-induced duration of sleep (in words) ([2]; at a dose of 20 mg/kg)	sedative effect (in words) (rats; Irwin test, rats)	Atax. (ataxia) (rats; dose 80 mg/kg)	pas. (passivity, sedation, prostration) (rats; dose 80 mg/kg)	Potentiation of duration of sleep ([2]; dose 80 mg/kg) [%]	Potentiation of duration of sleep ([2]; dose 160 mg/kg) [%]	potentiation of pentobarbital-induced duration of sleep (in words) ([2]; even at 160 mg/kg, the maximum dose tested)
CN(C)CCOC(c1ccccc1)c1ccccc1 [Difenhidramine, reference compound]	5.4	0.9	0	significantly potentiates	–	–	–	–	–	–
CCOCCn1c(CN2CCCN(CCCCn3cccn3)CC2)nc2ccccc21 [Example 1, 1-(2-ethoxyethyl)-2-{4-[4-(pyrazol-1-yl)butyl]homopiperazin-1-ylmethyl}benzimidazole]	0.04	–	–	–	very weak sedative effect	0.2	0	8	1	does not potentiate
